Measurements: paper PMC3961306, “Comparison of the Cancer Gene Targeting and Biochemical Selectivities of All Targeted Kinase Inhibitors Approved for Clinical Use” (PLoS ONE, 2014)

Assays:
Test in all cases: Kinase profiling in a biochemical assay panel (mobility shift assays and ELISA), %-inhibition at 1 μM; selectivity entropy
[1] = target: panel of more than 300 wild-type and mutant kinases (313 kinase panel) (Homo sapiens, UniProt Q9P1W9); conditions: kinase PIM2; 1 μM
[2] = target: panel of more than 300 wild-type and mutant kinases (313 kinase panel) (Homo sapiens, UniProt P17948); conditions: kinase FLT1; compound at 1 μM
[3] = target: panel of more than 300 wild-type and mutant kinases (313 kinase panel) (Homo sapiens, UniProt P11309); conditions: kinase PIM1; 1 μM
[4] = target: T1, panel of more than 300 wild-type and mutant kinases (313 kinase panel) (Homo sapiens, UniProt P21709); conditions: kinase EPHA1; compound at 1 μM
T1 sequence (P21709 26-976): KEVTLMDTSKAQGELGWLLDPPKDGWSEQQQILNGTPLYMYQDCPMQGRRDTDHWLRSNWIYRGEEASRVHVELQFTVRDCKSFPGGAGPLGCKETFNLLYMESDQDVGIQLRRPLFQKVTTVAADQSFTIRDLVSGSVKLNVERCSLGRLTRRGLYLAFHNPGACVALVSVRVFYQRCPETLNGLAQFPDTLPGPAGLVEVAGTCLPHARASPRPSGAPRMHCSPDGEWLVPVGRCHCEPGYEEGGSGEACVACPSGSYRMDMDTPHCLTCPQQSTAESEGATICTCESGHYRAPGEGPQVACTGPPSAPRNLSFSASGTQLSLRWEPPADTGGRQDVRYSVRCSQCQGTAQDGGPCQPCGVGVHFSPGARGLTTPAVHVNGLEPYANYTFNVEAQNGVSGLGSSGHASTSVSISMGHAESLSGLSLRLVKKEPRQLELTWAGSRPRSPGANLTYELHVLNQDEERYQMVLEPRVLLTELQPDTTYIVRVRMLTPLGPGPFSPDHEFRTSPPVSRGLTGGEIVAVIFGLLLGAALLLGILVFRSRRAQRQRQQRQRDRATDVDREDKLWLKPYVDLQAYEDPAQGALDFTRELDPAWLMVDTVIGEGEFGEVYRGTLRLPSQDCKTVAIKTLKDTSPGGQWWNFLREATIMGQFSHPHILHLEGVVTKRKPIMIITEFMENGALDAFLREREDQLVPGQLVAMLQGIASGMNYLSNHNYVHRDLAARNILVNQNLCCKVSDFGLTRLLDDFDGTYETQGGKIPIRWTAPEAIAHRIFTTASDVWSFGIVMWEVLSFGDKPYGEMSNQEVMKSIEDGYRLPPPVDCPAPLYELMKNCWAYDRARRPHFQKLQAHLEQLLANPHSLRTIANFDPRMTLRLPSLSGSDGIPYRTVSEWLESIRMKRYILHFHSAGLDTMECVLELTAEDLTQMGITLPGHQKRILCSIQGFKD

[5] = target: panel of more than 300 wild-type and mutant kinases (313 kinase panel) (Homo sapiens, UniProt Q9BUB5); conditions: kinase MNK1; 1 μM
[6] = target: panel of more than 300 wild-type and mutant kinases (313 kinase panel) (Homo sapiens, UniProt Q8TDX7); conditions: kinase NEK7; 1 μM
[7] = target: panel of more than 300 wild-type and mutant kinases (313 kinase panel) (Homo sapiens, UniProt Q86V86); conditions: kinase PIM3; 1 μM
[8] = test system: panel of more than 300 wild-type and mutant kinases (313 kinase panel)
[9] = target: T2, panel of more than 300 wild-type and mutant kinases (313 kinase panel) (Homo sapiens, UniProt Q8TF76); conditions: kinase Haspin; compound at 1 μM
T2 sequence (Q8TF76 1-798): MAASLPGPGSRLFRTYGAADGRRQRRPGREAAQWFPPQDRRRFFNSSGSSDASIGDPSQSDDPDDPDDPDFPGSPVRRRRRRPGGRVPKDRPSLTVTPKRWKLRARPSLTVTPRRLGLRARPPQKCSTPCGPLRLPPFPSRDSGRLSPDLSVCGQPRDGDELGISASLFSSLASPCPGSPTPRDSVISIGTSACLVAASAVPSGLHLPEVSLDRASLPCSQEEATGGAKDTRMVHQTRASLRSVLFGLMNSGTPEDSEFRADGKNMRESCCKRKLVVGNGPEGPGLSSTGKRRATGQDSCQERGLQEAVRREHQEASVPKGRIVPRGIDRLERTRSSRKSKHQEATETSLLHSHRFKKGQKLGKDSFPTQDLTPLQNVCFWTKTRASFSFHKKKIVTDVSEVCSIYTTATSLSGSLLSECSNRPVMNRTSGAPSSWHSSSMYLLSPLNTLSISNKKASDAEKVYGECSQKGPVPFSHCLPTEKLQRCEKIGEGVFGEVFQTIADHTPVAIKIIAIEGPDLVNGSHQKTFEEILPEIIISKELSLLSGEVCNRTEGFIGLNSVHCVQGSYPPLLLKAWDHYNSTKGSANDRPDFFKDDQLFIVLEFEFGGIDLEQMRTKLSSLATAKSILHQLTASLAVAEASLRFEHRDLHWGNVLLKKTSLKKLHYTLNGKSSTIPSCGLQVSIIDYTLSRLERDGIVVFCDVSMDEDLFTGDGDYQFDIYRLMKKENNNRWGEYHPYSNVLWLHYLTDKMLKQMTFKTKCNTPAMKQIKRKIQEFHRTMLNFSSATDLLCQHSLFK

[10] = target: panel of more than 300 wild-type and mutant kinases (313 kinase panel) (Homo sapiens, UniProt P53355); conditions: kinase DAPK1; compound at 1 μM

panel of more than 300 wild-type and mutant kinases (313 kinase panel) (Homo sapiens, UniProt Q9BUB5), sequence (Q9BUB5 whole entry, change not shown): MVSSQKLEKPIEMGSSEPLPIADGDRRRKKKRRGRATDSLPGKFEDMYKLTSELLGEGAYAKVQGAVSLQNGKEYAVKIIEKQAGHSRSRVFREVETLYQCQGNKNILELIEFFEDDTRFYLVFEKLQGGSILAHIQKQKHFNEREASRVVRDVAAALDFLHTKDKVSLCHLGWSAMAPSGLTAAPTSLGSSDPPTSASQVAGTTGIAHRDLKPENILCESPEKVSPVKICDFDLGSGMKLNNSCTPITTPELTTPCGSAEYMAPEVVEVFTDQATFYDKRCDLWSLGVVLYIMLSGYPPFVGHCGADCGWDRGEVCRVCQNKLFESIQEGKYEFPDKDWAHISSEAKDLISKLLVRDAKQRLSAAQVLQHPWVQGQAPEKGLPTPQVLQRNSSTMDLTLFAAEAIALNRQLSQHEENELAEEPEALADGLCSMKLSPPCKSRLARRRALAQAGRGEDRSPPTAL

Compound: CO[C@H]1C[C@@H]2CC[C@@H](C)[C@@](O)(O2)C(=O)C(=O)N2CCCC[C@H]2C(=O)O[C@H]([C@H](C)C[C@@H]2CC[C@@H](OC(=O)C(C)(CO)CO)[C@H](OC)C2)CC(=O)[C@H](C)/C=C(\C)[C@@H](O)[C@@H](OC)C(=O)[C@H](C)C[C@H](C)/C=C/C=C/C=C/1C [temsirolimus]
- %-inhibition of PIM2 [1]: -6%
- %-inhibition of FLT1 [2]: -2%
- %-inhibition of PIM1 [3]: -8%
- %-inhibition of EPHA1 [4]: -15%
- %-inhibition of MNK1 [5]: -19%
- %-inhibition of NEK7 [6]: -8%
- %-inhibition of PIM3 [7]: -1.31%
- %-inhibition of EGFR(d746-750) ([8]; kinase EGFR(d746-750), compound at 1 μM): -3%
- %-inhibition of EGFR(d746-750/T790M) ([8]; kinase EGFR(d746-750/T790M), compound at 1 μM): -0.33%
- %-inhibition of EML4-ALK ([8]; kinase EML4-ALK, compound at 1 μM): -7%
- %-inhibition of LYNb ([8]; kinase LYNb, compound at 1 μM): -10%
- %-inhibition of NPM1-ALK ([8]; kinase NPM1-ALK, 1 μM): -7.57%
- %-inhibition of PKCβ2 ([8]; kinase PKCβ2, 1 μM): -1.6%
- %-inhibition of SRM ([8]; kinase SRM, 1 μM): -4%
- %-inhibition of TAK1-TAB1 ([8]; kinase TAK1-TAB1, 1 μM): -3.77%
- %-inhibition of Haspin [9]: 3%
- %-inhibition of DAPK1 [10]: -8%
